DC50, Dmax and IC50 data for 16 compounds are collected here from patent publication US20260000676A1, “CHROMAN DERIVATIVES AS ESTROGEN RECEPTOR DEGRADERS” (THE REGENTS OF THE UNIVERSITY OF MICHIGAN, priority 2022, published 2026).

As usually defined, the DC50 is the concentration giving 50% degradation. Low readings indicate a more potent degrader, high ones a less potent degrader. What is called Dmax is the largest share of the target that was removed. A lower Dmax goes with shallow degradation. As usually defined, the IC50 is the concentration that inhibits the measured activity by half.

Where only a bound is given, the exact number is not on record here.

T1 sequence (P03372 whole entry): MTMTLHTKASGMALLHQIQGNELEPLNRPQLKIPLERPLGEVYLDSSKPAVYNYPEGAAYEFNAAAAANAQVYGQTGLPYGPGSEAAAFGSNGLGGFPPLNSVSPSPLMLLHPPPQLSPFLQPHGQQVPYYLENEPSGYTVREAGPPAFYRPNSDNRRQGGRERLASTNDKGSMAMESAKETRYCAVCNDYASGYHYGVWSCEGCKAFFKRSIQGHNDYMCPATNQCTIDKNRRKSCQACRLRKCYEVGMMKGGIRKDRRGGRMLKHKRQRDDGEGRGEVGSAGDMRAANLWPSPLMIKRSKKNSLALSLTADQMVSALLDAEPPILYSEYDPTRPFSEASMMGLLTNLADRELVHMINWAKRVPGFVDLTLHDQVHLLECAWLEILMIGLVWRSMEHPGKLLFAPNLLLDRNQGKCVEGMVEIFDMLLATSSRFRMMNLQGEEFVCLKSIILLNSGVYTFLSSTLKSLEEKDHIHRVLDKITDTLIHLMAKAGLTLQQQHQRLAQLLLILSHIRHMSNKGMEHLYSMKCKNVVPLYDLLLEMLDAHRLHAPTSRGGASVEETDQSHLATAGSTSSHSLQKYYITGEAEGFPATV
Chain of CRBN/DDB1 (Q96SW2 whole entry): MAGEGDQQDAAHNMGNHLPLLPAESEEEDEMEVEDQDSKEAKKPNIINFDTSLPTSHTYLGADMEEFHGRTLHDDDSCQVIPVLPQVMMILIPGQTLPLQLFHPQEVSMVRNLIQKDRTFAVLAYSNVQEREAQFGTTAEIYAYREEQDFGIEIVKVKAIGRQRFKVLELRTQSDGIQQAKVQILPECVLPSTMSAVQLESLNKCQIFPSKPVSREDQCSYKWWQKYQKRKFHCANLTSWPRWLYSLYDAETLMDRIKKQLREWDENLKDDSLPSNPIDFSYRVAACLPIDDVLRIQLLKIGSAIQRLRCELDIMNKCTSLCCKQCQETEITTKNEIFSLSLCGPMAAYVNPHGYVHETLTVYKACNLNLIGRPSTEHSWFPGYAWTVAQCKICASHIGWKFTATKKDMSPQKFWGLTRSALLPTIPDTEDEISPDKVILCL
Chain of CRBN/DDB1 (Q16531 whole entry partner): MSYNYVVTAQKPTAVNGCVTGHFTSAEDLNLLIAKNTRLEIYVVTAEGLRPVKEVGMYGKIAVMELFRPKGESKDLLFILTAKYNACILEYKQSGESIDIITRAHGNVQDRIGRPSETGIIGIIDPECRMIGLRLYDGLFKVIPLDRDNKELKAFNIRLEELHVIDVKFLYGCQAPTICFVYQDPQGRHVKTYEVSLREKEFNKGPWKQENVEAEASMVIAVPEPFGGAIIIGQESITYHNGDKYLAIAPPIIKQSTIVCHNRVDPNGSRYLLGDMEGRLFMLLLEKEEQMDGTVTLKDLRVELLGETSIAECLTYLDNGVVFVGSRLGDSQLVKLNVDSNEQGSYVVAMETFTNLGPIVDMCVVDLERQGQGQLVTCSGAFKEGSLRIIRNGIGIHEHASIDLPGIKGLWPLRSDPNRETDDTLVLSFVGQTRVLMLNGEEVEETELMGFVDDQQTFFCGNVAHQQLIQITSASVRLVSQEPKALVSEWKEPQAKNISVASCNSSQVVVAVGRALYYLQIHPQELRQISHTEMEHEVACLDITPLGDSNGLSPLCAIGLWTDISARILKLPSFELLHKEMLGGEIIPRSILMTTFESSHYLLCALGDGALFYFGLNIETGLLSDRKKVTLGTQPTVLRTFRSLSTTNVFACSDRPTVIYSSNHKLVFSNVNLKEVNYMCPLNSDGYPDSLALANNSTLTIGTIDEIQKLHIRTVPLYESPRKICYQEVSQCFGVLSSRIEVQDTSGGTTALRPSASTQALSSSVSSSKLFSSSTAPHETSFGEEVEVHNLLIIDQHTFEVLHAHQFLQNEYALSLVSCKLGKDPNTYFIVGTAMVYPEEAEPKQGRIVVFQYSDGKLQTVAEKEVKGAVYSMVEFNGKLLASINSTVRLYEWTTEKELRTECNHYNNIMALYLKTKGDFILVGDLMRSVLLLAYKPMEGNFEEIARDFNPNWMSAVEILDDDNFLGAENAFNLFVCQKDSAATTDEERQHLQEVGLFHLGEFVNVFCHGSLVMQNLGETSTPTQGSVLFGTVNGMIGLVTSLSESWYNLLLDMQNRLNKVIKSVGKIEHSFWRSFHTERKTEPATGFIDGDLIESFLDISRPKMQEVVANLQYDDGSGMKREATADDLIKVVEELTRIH

The first experiment has as its target T1, ER (Homo sapiens (Human), UniProt P03372). Description: In-cell western (ICW) ER degradation assay in MCF-7 cells. It is filed as cell-based. To be noted: ER degradation, MCF7, 16 hrs. On the procedure:
(§1) ERa degradative activity of compounds can be assessed in MCF-7 and T47D Cells. MCF-7 and T47D cell are seeded and are subsequently treated with the compounds at certain concentrations (e.g., 0.02 to 300 nM). DMSO can be used as vehicle control. Cells are fixed and are blocked with Intercept (PBS) Blocking Buffer (e.g., Li-COR, Odyssey Blocking Buffer), and are stained with ER (e.g., 1:500, Cell signaling) primary antibody for overnight at cold room. Secondary Antibody (e.g., IRDye 800CW Goat anti-Rabbit IgG) and CellTag 700 Stain are added in Intercept (PBS) Blocking Buffer. Finally, cell plate is placed in incubator to dry. Image and signal are captured on Odyssey® DLx Imaging System.
(§2) Day 3: After 16 hrs of compounds treatment, cells were fixed by 4% PFA and permeabilized with elution buffer (0.1% Triton X-100 in 1% PBS Solution). Subsequently, cells were blocked with Intercept (PBS) Blocking Buffer (Li-COR, Odyssey Blocking Buffer), and were stained with ER (1:500, Cell signaling) primary antibody for overnight at cold room.
(§3) Day 4: Remove the buffer, add IRDye 800CW Goat anti-Rabbit IgG Secondary Antibody (1:2000) and CellTag 700 Stain (1:500) in Intercept (PBS) Blocking Buffer. Finally, cell plate is placed in incubator to dry. Image and signal were captured on Odyssey® DLx Imaging System.
`O=C1CC[C@@H](N2Cc3c(ccc4c3OCC43CCN(CC4CC5(CCN(c6ccc([C@H]7c8ccc(O)cc8OC[C@H]7c7ccccc7)cc6)CC5)C4)CC3)C2=O)C(=O)N1` [Compound A143, (R)-3-(1′-((7-(4-((3R,4S)-7-hydroxy-3-phenylchroman-4-yl)phenyl)-7-azaspiro[3.5]nonan-2-yl)methyl)-6-oxo-6,8-dihydro-2H,7H-spiro[furo[2,3-e]isoindole-3,4′-piperidin]-7-yl)piperidine-2,6-dione] returned a DC50 of 10 to 100 nM.

Still in this experiment, the particulars now being: MCF7, maximal ER degradation, MCF7, 16 hrs.
Take `O=C1CC[C@@H](N2Cc3c(ccc4c3OCC43CCN(CC4CC5(CCN(c6ccc([C@H]7c8ccc(O)cc8OC[C@H]7c7ccccc7)cc6)CC5)C4)CC3)C2=O)C(=O)N1` [Compound A143, (R)-3-(1′-((7-(4-((3R,4S)-7-hydroxy-3-phenylchroman-4-yl)phenyl)-7-azaspiro[3.5]nonan-2-yl)methyl)-6-oxo-6,8-dihydro-2H,7H-spiro[furo[2,3-e]isoindole-3,4′-piperidin]-7-yl)piperidine-2,6-dione]: the Dmax was 25 to 50%.

For the next experiment, the target named is T1, ER. As to the kind of experiment: In-cell western (ICW) ER degradation assay in T47D cells. The format is cell-based. To be noted: ER degradation, 16 hrs. On the procedure:
as §1, §2, §3
As to `O=C1CC[C@@H](N2Cc3c(ccc4c3OCC43CCN(CC4CC5(CCN(c6ccc([C@H]7c8ccc(O)cc8OC[C@H]7c7ccccc7)cc6)CC5)C4)CC3)C2=O)C(=O)N1` [Compound A143, (R)-3-(1′-((7-(4-((3R,4S)-7-hydroxy-3-phenylchroman-4-yl)phenyl)-7-azaspiro[3.5]nonan-2-yl)methyl)-6-oxo-6,8-dihydro-2H,7H-spiro[furo[2,3-e]isoindole-3,4′-piperidin]-7-yl)piperidine-2,6-dione], the DC50 was in the range of 10 to 100 nM.

Still in this experiment, the particulars now being: maximal ER degradation, 16 hrs.
Regarding `O=C1CC[C@@H](N2Cc3c(ccc4c3OCC43CCN(CC4CC5(CCN(c6ccc([C@H]7c8ccc(O)cc8OC[C@H]7c7ccccc7)cc6)CC5)C4)CC3)C2=O)C(=O)N1` [Compound A143, (R)-3-(1′-((7-(4-((3R,4S)-7-hydroxy-3-phenylchroman-4-yl)phenyl)-7-azaspiro[3.5]nonan-2-yl)methyl)-6-oxo-6,8-dihydro-2H,7H-spiro[furo[2,3-e]isoindole-3,4′-piperidin]-7-yl)piperidine-2,6-dione], the Dmax is 25 to 50%.

In another experiment the target is CRBN/DDB1 (Homo sapiens (Human), UniProt Q96SW2). Description: HTRF binding assay to CRBN/DDB1. To be noted: read-out: CRBN HTRF IC50. On the procedure:
The binding potency was determined using HTRF assay technology (Perkin Elmer). Compounds were serially diluted in DMSO and 0.2 μL volume was transferred to white 384-well plate.
Background: In TR-FRET formats the signal depends on donor and acceptor labels being close together.
Consider `O=C1CCC(N2C(=O)c3cc4c(cc3C2=O)CN(CC(=O)N2CCC3(CC2)CCN(c2ncc([C@@H]5c6ccc(O)cc6OC[C@@H]5c5ccccc5)cn2)CC3)C4)C(=O)N1` (stereo partly drawn) [Compound A5, 2-(2,6-dioxopiperidin-3-yl)-6-(2-(9-(5-((3S,4R)-7-hydroxy-3-phenylchroman-4-yl)pyrimidin-2-yl)-3,9-diazaspiro[5.5]undecan-3-yl)-2-oxoethyl)-6,7-dihydropyrrolo[3,4-f]isoindole-1,3(2H,5H)-dione], for which the IC50 lay in the range of 500 to 5000 nM.

For `O=C1CCC(N2Cc3c(ccc4c3OC[C@@H]3CN(CC5CCN(c6ncc([C@@H]7c8ccc(O)cc8OC[C@@H]7c7ccccc7)cn6)CC5)CCN43)C2=O)C(=O)N1` (single isomer, unassigned) [Compound A20], the IC50 is less than 50 nM.

For the compound `O=C1CCC(N2C(=O)c3cc4c(cc3C2=O)CN(CC(=O)N2CCC3(CC2)CCN(c2ncc([C@H]5c6ccc(O)cc6OC[C@H]5c5ccccc5)cn2)CC3)C4)C(=O)N1` (stereo partly drawn) [Compound A4, 2-(2,6-dioxopiperidin-3-yl)-6-(2-(9-(5-((3R,4S)-7-hydroxy-3-phenylchroman-4-yl)pyrimidin-2-yl)-3,9-diazaspiro[5.5]undecan-3-yl)-2-oxoethyl)-6,7-dihydropyrrolo[3,4-f]isoindole-1,3(2H,5H)-dione], the IC50 was in the range of 500 to 5000 nM.

`O=C1CCC(N2Cc3c(ccc4c3OC[C@@H]3CN(CC5CCN(c6ncc([C@H]7c8ccc(O)cc8OC[C@H]7c7ccccc7)cn6)CC5)CCN43)C2=O)C(=O)N1` (single isomer, unassigned) [Compound A19]: the IC50 is 50 to 500 nM.

On to `COc1cccc([C@H]2COc3cc(O)ccc3[C@H]2c2ccc(N3CCC(CN4CCN5c6ccc7c(c6OC[C@@H]5C4)CN(C4CCC(=O)NC4=O)C7=O)CC3)cc2)c1` (single isomer, unassigned) [Compound A23], for which the IC50 was less than 50 nM.

Turning to `O=C1CCC(N2Cc3cc4c(cc3C2=O)OC[C@@H]2CN(CC3CCN(c5ncc([C@@H]6c7ccc(O)cc7OC[C@@H]6c6ccccc6)cn5)CC3)CCN42)C(=O)N1` (stereo partly drawn) [Compound A10, 3-((S)-3-((1-(5-((3S,4R)-7-hydroxy-3-phenylchroman-4-yl)pyrimidin-2-yl)piperidin-4-yl)methyl)-8-oxo-1,2,3,4,4a,5,8,10-octahydro-9H-pyrazino[1′,2′:4,5][1,4]oxazino[2,3-f]isoindol-9-yl)piperidine-2,6-dione], the IC50 is 500 to 5000 nM.

For the compound `O=C1CCC(N2C(=O)c3cc4c(cc3C2=O)CN(C(=O)CN2CC3(CCN(c5ccc([C@@H]6c7ccc(O)cc7OC[C@@H]6c6ccccc6)cc5)CC3)C2)C4)C(=O)N1` (stereo partly drawn) [Compound A32, 2-(2,6-dioxopiperidin-3-yl)-6-(2-(7-(4-((3S,4R)-7-hydroxy-3-phenylchroman-4-yl)phenyl)-2,7-diazaspiro[3.5]nonan-2-yl)acetyl)-6,7-dihydropyrrolo[3,4-f]isoindole-1,3(2H,5H)-dione], the IC50 fell in the range of 500 to 5000 nM.

For `O=C1CCC(N2Cc3cc4c(cc3C2=O)OC[C@@H]2CN(CC3CCN(c5ccc([C@H]6c7ccc(O)cc7OC[C@H]6c6ccccc6)cc5)CC3)CCN42)C(=O)N1` (stereo partly drawn) [Compound A11, 3-((S)-3-((1-(4-((3R,4S)-7-hydroxy-3-phenylchroman-4-yl)phenyl)piperidin-4-yl)methyl)-8-oxo-1,2,3,4,4a,5,8,10-octahydro-9H-pyrazino[1′,2′:4,5][1,4]oxazino[2,3-f]isoindol-9-yl)piperidine-2,6-dione], the IC50 was greater than 5000 nM.

For the compound `O=C1CCC(N2Cc3cc4c(cc3C2=O)OC[C@@H]2CN(CC3CCN(c5ncc([C@H]6c7ccc(O)cc7OC[C@H]6c6ccccc6)cn5)CC3)CCN42)C(=O)N1` (stereo partly drawn) [Compound A18, 3-((S)-3-((1-(5-((3R,4S)-7-hydroxy-3-phenylchroman-4-yl)pyrimidin-2-yl)piperidin-4-yl)methyl)-8-oxo-1,2,3,4,4a,5,8,10-octahydro-9H-pyrazino[1′,2′:4,5][1,4]oxazino[2,3-f]isoindol-9-yl)piperidine-2,6-dione], the IC50 fell in the range of 500 to 5000 nM.

For the compound `COc1ccc([C@@H]2COc3cc(O)ccc3[C@@H]2c2ccc(N3CCC(CN4CCN5c6ccc7c(c6OC[C@H]5C4)CN(C4CCC(=O)NC4=O)C7=O)CC3)cc2)cc1` (single isomer, unassigned) [Compound A15], the IC50 fell in the range of 50 to 500 nM.

Take `O=C1CCC(Nc2ccc(N3CCN(CC4CCN(c5ccc([C@@H]6c7ccc(O)cc7OC[C@@H]6c6ccccc6)cc5F)CC4)CC3)c(F)c2)C(=O)N1` (stereo partly drawn) [Compound A29, 3-((3-fluoro-4-(4-((1-(2-fluoro-4-((3S,4R)-7-hydroxy-3-phenylchroman-4-yl)phenyl)piperidin-4-yl)methyl)piperazin-1-yl)phenyl)amino)piperidine-2,6-dione]: the IC50 lay within 500 to 5000 nM.

As to `O=C1CCC(N2Cc3c(ccc4c3OC[C@@H]3CN(CC5CC6(CCN(c7ccc([C@H]8c9ccc(O)cc9OC[C@H]8c8ccccc8)cc7)CC6)C5)CCN43)C2=O)C(=O)N1` (single isomer, unassigned) [Compound A21, 3-((S)-7-((7-(4-((3R,4S)-7-hydroxy-3-phenylchroman-4-yl)phenyl)-7-azaspiro[3.5]nonan-2-yl)methyl)-1-oxo-1,3,5,5a,6,7,8,9-octahydro-2H-pyrazino[1′,2′:4,5][1,4]oxazino[2,3-e]isoindol-2-yl)piperidine-2,6-dione], the IC50 was less than 50 nM.

`O=C1CCC(N2Cc3c(ccc4c3OC[C@@H]3CN(CC5CC6(CCN(c7ccc([C@@H]8c9ccc(O)cc9OC[C@@H]8c8ccccc8)cc7)CC6)C5)CCN43)C2=O)C(=O)N1` (stereo partly drawn) [Compound A22, 3-((S)-7-((7-(4-((3S,4R)-7-hydroxy-3-phenylchroman-4-yl)phenyl)-7-azaspiro[3.5]nonan-2-yl)methyl)-1-oxo-1,3,5,5a,6,7,8,9-octahydro-2H-pyrazino[1′,2′:4,5][1,4]oxazino[2,3-e]isoindol-2-yl)piperidine-2,6-dione]: the IC50 was less than 50 nM.

On to `Cc1nn(C2CCC(=O)NC2=O)c2ccc(N3CCN(CC4CC5(CCN(c6ccc([C@@H]7c8ccc(O)cc8OC[C@@H]7c7ccccc7)cc6)CC5)C4)CC3)cc12` (single isomer, unassigned) [Compound A25], for which the IC50 fell in the range of 50 to 500 nM.

For `O=C1CCC(Nc2ccc(N3CCN(CC4CCN(c5ccc([C@@H]6c7ccc(O)cc7OC[C@@H]6c6ccccc6)cc5)CC4)CC3)c(F)c2)C(=O)N1` (stereo partly drawn) [Compound A30, 3-((3-fluoro-4-(4-((1-(4-((3S,4R)-7-hydroxy-3-phenylchroman-4-yl)phenyl)piperidin-4-yl)methyl)piperazin-1-yl)phenyl)amino)piperidine-2,6-dione], the IC50 lay in the range of 500 to 5000 nM.
